# Laboratory results taken from patent publication US20140179664A1, “Heterocyclyl Pyrimidine Analogues As JAK Inhibitors” (Cellzome Limited, priority 2011, published 2014).
# Biological target: T1, JAK3 (Homo sapiens, UniProt P52333)
# T1 construct: endogenous in cells; host or cells: Molt4 (ATCC CRL-1582) and Ramos (ATCC CRL-1596), mixed lysate 1:2
# T1 sequence (P52333 1-1124): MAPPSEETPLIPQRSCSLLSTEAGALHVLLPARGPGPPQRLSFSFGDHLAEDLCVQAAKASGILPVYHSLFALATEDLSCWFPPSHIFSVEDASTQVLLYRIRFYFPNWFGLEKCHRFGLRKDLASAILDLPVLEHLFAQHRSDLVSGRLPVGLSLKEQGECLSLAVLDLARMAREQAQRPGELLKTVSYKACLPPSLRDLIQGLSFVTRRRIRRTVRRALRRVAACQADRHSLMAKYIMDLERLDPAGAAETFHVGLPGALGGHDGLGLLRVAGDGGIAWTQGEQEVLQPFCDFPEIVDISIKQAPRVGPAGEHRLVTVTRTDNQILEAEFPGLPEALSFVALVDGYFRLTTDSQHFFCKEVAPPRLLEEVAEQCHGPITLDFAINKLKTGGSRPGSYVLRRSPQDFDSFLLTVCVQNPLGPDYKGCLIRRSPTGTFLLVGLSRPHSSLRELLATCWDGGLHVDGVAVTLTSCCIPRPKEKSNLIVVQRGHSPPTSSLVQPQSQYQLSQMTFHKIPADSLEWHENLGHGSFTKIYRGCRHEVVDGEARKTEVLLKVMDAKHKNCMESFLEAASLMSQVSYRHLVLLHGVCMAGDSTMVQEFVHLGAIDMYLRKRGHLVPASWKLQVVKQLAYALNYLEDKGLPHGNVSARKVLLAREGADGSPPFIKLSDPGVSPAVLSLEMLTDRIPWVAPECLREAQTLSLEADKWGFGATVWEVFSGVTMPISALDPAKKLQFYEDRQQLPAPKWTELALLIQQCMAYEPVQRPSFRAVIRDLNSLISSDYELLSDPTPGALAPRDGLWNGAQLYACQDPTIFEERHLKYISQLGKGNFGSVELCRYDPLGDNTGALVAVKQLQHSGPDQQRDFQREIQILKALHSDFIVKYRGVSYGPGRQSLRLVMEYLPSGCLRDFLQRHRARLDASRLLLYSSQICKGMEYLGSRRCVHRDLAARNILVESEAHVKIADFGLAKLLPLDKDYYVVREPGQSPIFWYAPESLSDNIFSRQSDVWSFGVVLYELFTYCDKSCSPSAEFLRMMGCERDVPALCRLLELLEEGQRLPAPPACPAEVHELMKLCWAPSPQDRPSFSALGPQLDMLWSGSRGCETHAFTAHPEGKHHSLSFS
# Test: Kinobeads assay, JAK3
# Assay type: binding
# Conditions: mixed Molt4/Ramos lysate, read-out: Inhibition values (IC50) JAK3
# Procedure, shortened: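 Mixed Molt4/Ramos lysate (1:2, 10 mg/mL protein) was incubated 3 h in the cold with the immobilized aminopyrido-pyrimidine affinity matrix and compound, 9-step 1:3 dilutions. Bead-bound kinases were eluted and quantified by antibody dot blot with infrared detection. IC50s are from dose-response curves.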
row,IC50 [nM],SMILES
1,< 100,OCCn1cc(Nc2ncc(Cl)c(N[C@H](CO)c3cccc(F)c3)n2)cn1 [Compound 86]
2,< 100,NC(=O)Cn1cc(Nc2ncc(Cl)c(N[C@H](CO)c3cccc(F)c3)n2)cn1 [Compound 87]
3,< 100,CN(C)CCNC(=O)Cn1cc(Nc2ncc(Cl)c(N[C@H](CO)c3ccccc3)n2)cn1 [Compound 89]
4,< 100,CN(C)CCCNC(=O)Cn1cc(Nc2ncc(Cl)c(N[C@H](CO)c3ccccc3)n2)cn1 [Compound 90]
5,100 to 1000,OCCn1cc(Nc2ncc(Cl)c(NC(CO)c3cccc(Br)c3)n2)cn1 (stereo not shown) [Compound 93]

# More lines, now with the values behind:
row,SMILES,IC50 [nM]
1,Cn1cc(Nc2ncc(F)c(N[C@H](CO)c3ccccc3)n2)cn1 [Compound 3],100 to 1000
2,Cn1cc(Nc2ncc(Cl)c(N[C@H](CO)c3cccc(F)c3)n2)cn1 [Compound 85],< 100
3,OC[C@@H](Nc1nc(Nc2cn[nH]c2)ncc1Cl)c1cccc(F)c1 [Compound 88],< 100
4,Cn1cc(Nc2ncc(Cl)c(N[C@H](CO)c3cccnc3)n2)cn1 [Compound 91],< 100
5,OCCn1cc(Nc2ncc(Cl)c(N[C@H](CO)c3cccnc3)n2)cn1 [Compound 92],< 100
